Assay [1] concerns the target T1, full length GRK5 (Homo sapiens, UniProt P34947).
T1 construct: 6/2 fold concentrated full length GRK5 (Millipore, #14-714) in reaction buffer; purchased Millipore 14-714
The assay can be described thus: GRK5 kinase activity assay, ADP Glo Kinase Assay technology (Promega). In kind it is biochemical. The settings on record: group II; ADP Glo Kinase Assay (Table 9-B). The essentials:
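Casein (10 μM) phosphorylation with 100 μM ATP in 20 mM MES pH 6.0, 1 mM DTT, 10 mM MgCl2, 0.01% Tween20, 120 min at room temperature; ADP quantified by ADP-Glo luminescence.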
Background: ADP-Glo first removes unused ATP, then detects ADP through luciferase.

The target of assay [2] is T2, GRK5 (Homo sapiens, UniProt P34947).
T2 construct: purchased Millipore (KinaseProfiler service)
T2 sequence (P34947 whole entry): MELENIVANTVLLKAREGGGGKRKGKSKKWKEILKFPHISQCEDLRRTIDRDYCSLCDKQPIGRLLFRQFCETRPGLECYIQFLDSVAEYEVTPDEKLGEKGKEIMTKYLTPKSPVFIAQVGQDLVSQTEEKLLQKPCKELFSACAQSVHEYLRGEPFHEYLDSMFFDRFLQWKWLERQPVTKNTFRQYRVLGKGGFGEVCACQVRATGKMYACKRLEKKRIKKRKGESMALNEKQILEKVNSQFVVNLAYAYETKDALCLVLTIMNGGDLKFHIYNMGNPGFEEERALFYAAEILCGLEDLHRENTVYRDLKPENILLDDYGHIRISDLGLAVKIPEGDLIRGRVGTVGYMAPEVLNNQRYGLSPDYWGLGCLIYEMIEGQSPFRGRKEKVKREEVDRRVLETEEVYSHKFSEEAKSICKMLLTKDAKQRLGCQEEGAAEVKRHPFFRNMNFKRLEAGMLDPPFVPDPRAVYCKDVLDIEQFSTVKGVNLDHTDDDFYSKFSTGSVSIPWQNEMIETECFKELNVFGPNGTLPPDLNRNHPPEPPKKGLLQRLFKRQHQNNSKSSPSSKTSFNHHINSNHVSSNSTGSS
The assay is described as follows: Millipore KinaseProfiler radiometric filtration binding assay. Format: biochemical. The settings on record: group II; Millipore KinaseProfiler (Table 10). How it is done:
(§1) As alternative, IC50 values are determined by a radiometric based filtration binding assay, namely Millipore KinaseProfiler™. GRK5 is incubated with 8 mM MOPS pH7.0, 0.2 mM EDTA, 2 mg/mL casein, 10 mM MgAcetate and […] (specific activity approx. 500 cpm/pmol, concentration as required). The reaction is initiated by the addition of the MgATP mix. After incubation for 40 minutes at room temperature, the reaction is stopped by the addition of 3% phosphoric acid solution. 10 μL of the reaction is then spotted onto a P30 filtermat and washed three times for 5 minutes in 75 mM phosphoric acid and once in methanol prior to drying and scintillation counting.
as §1, with “IC50” for “As alternative, IC50”, “pH 7.0,” for “pH7.0,”

Assay [3] has as its system 3T3-L1 cells. The assay is described as follows: Cell viability assay (CellTiter-Glo / automated cell number) in 3T3-L1. Format: cell-based. Conditions: Mus musculus, read-out: Inhibition of cell viability IC50. From the text:
(§2) Luminescent cell viability assay. For the detection of cell viability, the CellTiter-Glo® Luminescent Cell Viability Assay was used. This test is based on a luciferase reaction to measure the amount of ATP in cells. This correlates directly with the number of cells and their viability because cells lose the ability to synthesize ATP directly after e.g. loss of membrane integrity or a cytotoxic event. The protocol was adapted to 24 well plates and to the different culture conditions resulting in a standardized protocol which is described below. Cell lysis, inhibition of endogenous ATPases and detection of ATP was performed by adding the CellTiter-Glo® Reagent to the culture wells. Per well, 100 μl reagent were mixed with the same volume of proper Medium. Lysing of the cells took place by 10 min incubation at RT and moderate shaking. Three times 50 μl cell lysate was transferred into a white 96 well plate to eliminate stray light, and the bioluminescence was measured.
(§3) In a 96 well dish 10000 cells per well (100 μl) were seed and treated for 72 h. At the end of the treatment, cells were fixed with 4% paraformaldehyde in PBS for 15 minutes, permeabilized with 0.1% triton-X 100 in PBS for 15 minutes and stained with Hoechst 33342 (20 μg/ml in PBS; dilute from 20 mg/ml stock) directly to cells in 100 μl medium in PBS for 30 minutes at 37° C. Stained cells were imaged with a Cellomics ArrayScan VT I automated microscope. Images were analyzed with vHCS Scan Target Activation software v5.1.2 to identify apoptotic cells. Six fields per well of a 96 well plate we re-imaged at 10× magnification. First, cells were identified by their nuclei staining in channel 1 of Cellomics and their amount. Staining intensity was plotted and compared between NT controls and compound treated cells. Finally, data was obtained using vHCS View software v 5.1.2 and the numbers of cells present in the 96 well were identified as “Valid Object Count” whereas the percentage of infection was determined as “% selected”. IC50 values have been calculated accordingly.
Background: In ATP-based viability assays light output follows the ATP content of the culture.

For assay [4], the system named is beta TC6 cells. The assay can be described thus: Cell viability assay (CellTiter-Glo / automated cell number) in beta TC6. In kind it is cell-based. Conditions: Mus musculus, read-out: Inhibition of cell viability IC50.
From the text: as §2, §3

Assay [5] concerns C2C12 cells. The assay is described as follows: Cell viability assay (CellTiter-Glo / automated cell number) in C2C12. The settings on record: Mus musculus, read-out: Inhibition of cell viability IC50. In kind it is cell-based.
From the text: as §2, §3

In assay [6] the test system is HepG2 cells. The assay is described as follows: Cell viability assay (CellTiter-Glo / automated cell number) in HepG2. Format: cell-based. Conditions: Homo sapiens, read-out: Inhibition of cell viability IC50.
From the text: as §2, §3

The subject of assay [7] is beta-TC6 insulinoma cells. The assay can be described thus: Insulin release by beta-TC6 cells, rat/mouse insulin ELISA, high glucose. Format: cell-based. Conditions: Mus musculus, Beta-TC6, 2 h, group II; 5 μM, 2 h, high glucose (4.5 g/L); % increase in regard to DMSO control (set at 0%). Here is the method: (§4) Release of insulin was detected using a rat/mouse insulin ELISA.
After incubation, the supernatant of the beta-TC6 insulinoma cells was diluted 1:20. The insulin release was measured with rat/mouse insulin ELISA (Merck Millipore Darmstadt, Cat. # EZRMI-13K) by following the manufacture protocol. The enzyme activity of the horseradish peroxidase of the immobilized biotinylated antibodies was monitored spectrophotometrically by the increased absorbency at 490 nm, and corrected by the absorbency at 610 nm.
as §4
The effect on the insulin release of each kinase depletion was monitored by using a rat/mouse insulin ELISA.
For the validation of the negative modulating kinases SCYL1, GRK5, and ADCK1, the target genes were depleted using four different siRNA-sequences each (FIG. 2A-D). The gene-depletion was measured via mRNA-levels after 72 hours while the insulin release was measured using a rat/mouse insulin ELISA after two hours incubation.

One may read the IC50 as the concentration that inhibits the measured activity by half.

T1 sequence (P34947 whole entry): as above

Consider `CC[C@@H](NC(=O)c1ccc2c(c1)/C(=C/c1[nH]c(C)c(C(=O)N3CCC[C@@H]3CN3CCCC3)c1C)C(=O)N2)c1ccccc1` [II.48, (3Z)-3-[(3,5-dimethyl-4-{[(2R)-2-(pyrrolidin-1-ylmethyl)pyrrolidin-1-yl]carbonyl}-1H-pyrrol-2-yl)methylene]-2-oxo-N-[(1R)-1-phenylpropyl]indoline-5-carboxamide], for which the IC50 in assay [1] was 100 to 1000 nM; in assay [2], 100 to 1000 nM; in assay [3], 600 nM; in assay [4], 1080 nM; in assay [5], over 10000 nM; in assay [6] it was 1430 nM.

In the case of `Cc1[nH]c(/C=C2\C(=O)Nc3ccc(C(=O)N[C@H](C)c4cccc(Cl)c4)cc32)c(C)c1C(=O)N1CCCCC1` [II.55, (3Z)-N-[(1R)-1-(3-chlorophenyl)ethyl]-3-{[3,5-dimethyl-4-(piperidin-1-ylcarbonyl)-1H-pyrrol-2-yl]methylene}-2-oxoindoline-5-carboxamide], the IC50 in assay [1] is 100 to 1000 nM; in assay [2], 100 to 1000 nM; in assay [3] it was 860 nM; in assay [4] it was 1100 nM; in assay [5], 1410 nM; in assay [6] it was 790 nM.

Consider `CC[C@@H](NC(=O)c1ccc2c(c1)/C(=C/c1[nH]c(C)c(CCC(=O)O)c1C)C(=O)N2)c1ccccc1` [II.130, (3Z)-3-{2,4-dimethyl-5-[2-oxo-5-(1R)-(1-phenyl-propylcarbamoyl)-1,2-dihydro-indol-3-ylidenemethyl]-1H-pyrrol-3-yl}-propionic acid], for which the IC50 in assay [1] was 100 to 1000 nM; in assay [3], over 10000 nM; in assay [4], 8520 nM; in assay [5], over 10000 nM; in assay [6], 1580 nM. This molecule also showed an activation at 5 µM in assay [7] of 103%.

Molecule `Cc1[nH]c(/C=C2\C(=O)Nc3ccc(C(=O)N[C@H](C)c4ccccc4)cc32)c(C)c1C(=O)N1CCC[C@H]1CN1CCCC1` [II.16, (3Z)-3-[(3,5-dimethyl-4-{[(2S)-2-(pyrrolidin-1-ylmethyl)pyrrolidin-1-yl]carbonyl}-1H-pyrrol-2-yl)methylene]-2-oxo-N-[(1R)-1-phenylethyl]indoline-5-carboxamide] returned an IC50 in assay [2] of 100 to 1000 nM.

With `Cc1cccc(C(C)NC(=O)c2ccc3c(c2)/C(=C/c2[nH]c(C)c(C(=O)N4CCN(C)CC4)c2C)C(=O)N3)c1` (stereo not shown) [II.51, (3Z)-3-({3,5-dimethyl-4-[(4-methylpiperazin-1-yl)carbonyl]-1H-pyrrol-2-yl}methylene)-N-[1-(3-methylphenyl)ethyl]-2-oxoindoline-5-carboxamide], the IC50 was 2000 to 10000 nM in assay [1]; 1360 nM in assay [3]; 1970 nM in assay [4]; 3340 nM in assay [5]; 1110 nM in assay [6]. In assay [7], this molecule showed an activation at 5 µM of 252%.

On to `Cc1[nH]c(/C=C2\C(=O)Nc3ccc(C(=O)N[C@H](C)c4ccc(Cl)cc4)cc32)c(C)c1C(=O)N1CCCC1` [II.67, (3Z)-N-[(1R)-1-(4-chlorophenyl)ethyl]-3-{[3,5-dimethyl-4-(pyrrolidin-1-ylcarbonyl)-1H-pyrrol-2-yl]methylene}-2-oxoindoline-5-carboxamide], for which the IC50 was 100 to 1000 nM in assay [1]; 1520 nM in assay [3]; 1940 nM in assay [4]; 3940 nM in assay [5]; 1470 nM in assay [6]. In assay [7], this molecule registered an activation at 5 µM of 159%.

Regarding `C[C@@H](c1ccccc1)N(C)C(=O)c1ccc2c(c1)/C(=C/Nc1ccc(CN3CCCCC3)cc1)C(=O)N2` [II.71, (3Z)-N-methyl-2-oxo-N-[(1S)-1-phenylethyl]-3-({[4-(piperidin-1-ylmethyl)phenyl]amino}methylene)indoline-5-carboxamide], the IC50 in assay [1] is 2000 to 10000 nM; in assay [2], 2000 to 10000 nM; in assay [3], 3100 nM; in assay [4], 2750 nM; in assay [5], 4260 nM; in assay [6], 2530 nM.

For `CCC(NC(=O)c1ccc2c(c1)/C(=C/c1[nH]c(C)c(C(=O)NCCN3CCCC3)c1C)C(=O)N2)c1cccc(Cl)c1` (stereo not shown) [II.11, (3Z)-N-[1-(3-chlorophenyl)propyl]-3-({3,5-dimethyl-4-[(2-pyrrolidin-1-ylethyl)carbamoyl]-1H-pyrrol-2-yl}methylene)-2-oxoindoline-5-carboxamide], the IC50 in assay [1] was 100 to 1000 nM; in assay [3], over 10000 nM; in assay [4] it was 960 nM; in assay [5], 3370 nM; in assay [6] it was 800 nM. For the same molecule, the activation at 5 µM in assay [7] turned out to be 96%.

As to `CC[C@@H](NC(=O)c1ccc2c(c1)/C(=C/c1[nH]c(C)c(C(=O)N3CCC[C@H]3CN3CCCC3)c1C)C(=O)N2)c1ccccc1` [II.46, (3Z)-3-[(3,5-dimethyl-4-{[(2S)-2-(pyrrolidin-1-ylmethyl)pyrrolidin-1-yl]carbonyl}-1H-pyrrol-2-yl)methylene]-2-oxo-N-[(1R)-1-phenylpropyl]indoline-5-carboxamide], the IC50 in assay [1] was under 100 nM; in assay [2], under 100 nM; in assay [3], 320 nM; in assay [4] it was 220 nM; in assay [5] it was 8860 nM; in assay [6], 780 nM.

Turning to `Cc1[nH]c(/C=C2\C(=O)Nc3ccc(C(=O)N[C@@H]4CCc5ccccc54)cc32)c(C)c1C(=O)N1CCC[C@@H]1CN1CCCC1` [II.30, (3Z)-N-[(1R)-2,3-dihydro-1H-inden-1-yl]-3-[(3,5-dimethyl-4-{[(2R)-2-(pyrrolidin-1-ylmethyl)pyrrolidin-1-yl]carbonyl}-1H-pyrrol-2-yl)methylene]-2-oxoindoline-5-carboxamide], the IC50 in assay [1] was 2000 to 10000 nM; in assay [2] it was 2000 to 10000 nM; in assay [3], 810 nM; in assay [4] it was 1690 nM; in assay [5], over 10000 nM; in assay [6] it was 2840 nM.

Consider `COc1ccc([C@@H](C)NC(=O)c2ccc3c(c2)/C(=C/Nc2ccc(CN4CCCCC4)cc2)C(=O)N3)cc1` [II.70, (3Z)-N-[(1R)-1-(4-methoxyphenyl)ethyl]-2-oxo-3-({[4-(piperidin-1-ylmethyl)phenyl]amino}methylene)indoline-5-carboxamide], for which the IC50 in assay [1] was 100 to 1000 nM; in assay [2], 100 to 1000 nM; in assay [3] it was 2160 nM; in assay [4] it was 1480 nM; in assay [5], over 10000 nM; in assay [6], 1810 nM.

Values taken from US9458463B2, “Method for treatment of diabetes by a small molecule inhibitor for GRK5” (MAX-PLANCK-GESELLSCHAFT ZUR FÖRDERUNG DER WISSENSCHAFTEN …, priority 2010, dated 2016).
